ChEMBL document CHEMBL5291721, “A preclinical secondary pharmacology resource illuminates target-adverse drug reaction associations of marketed drugs” (Nat Commun, 2023)

Tests used:
[1] = molecular target: T1, Gastrin/cholecystokinin type B receptor (Homo sapiens, UniProt P32239)
T1 sequence (P32239 whole entry): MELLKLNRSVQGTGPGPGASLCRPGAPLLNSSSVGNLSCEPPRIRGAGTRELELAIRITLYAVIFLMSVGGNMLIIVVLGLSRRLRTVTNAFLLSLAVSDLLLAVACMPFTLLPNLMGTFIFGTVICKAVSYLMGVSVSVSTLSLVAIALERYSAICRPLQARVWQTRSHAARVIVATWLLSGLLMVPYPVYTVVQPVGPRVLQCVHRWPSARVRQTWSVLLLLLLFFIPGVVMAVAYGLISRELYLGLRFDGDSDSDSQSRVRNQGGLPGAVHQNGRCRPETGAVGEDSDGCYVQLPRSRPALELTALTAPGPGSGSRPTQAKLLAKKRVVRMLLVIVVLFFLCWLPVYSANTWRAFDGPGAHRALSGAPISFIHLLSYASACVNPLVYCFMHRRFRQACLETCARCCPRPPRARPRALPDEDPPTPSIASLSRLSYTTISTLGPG

Cannabinoid receptor 1 = Cannabinoid receptor 1 (Homo sapiens, UniProt P21554)
Estrogen receptor = molecular target: T2, Estrogen receptor (Homo sapiens, UniProt P03372)
T2 sequence (P03372 whole entry): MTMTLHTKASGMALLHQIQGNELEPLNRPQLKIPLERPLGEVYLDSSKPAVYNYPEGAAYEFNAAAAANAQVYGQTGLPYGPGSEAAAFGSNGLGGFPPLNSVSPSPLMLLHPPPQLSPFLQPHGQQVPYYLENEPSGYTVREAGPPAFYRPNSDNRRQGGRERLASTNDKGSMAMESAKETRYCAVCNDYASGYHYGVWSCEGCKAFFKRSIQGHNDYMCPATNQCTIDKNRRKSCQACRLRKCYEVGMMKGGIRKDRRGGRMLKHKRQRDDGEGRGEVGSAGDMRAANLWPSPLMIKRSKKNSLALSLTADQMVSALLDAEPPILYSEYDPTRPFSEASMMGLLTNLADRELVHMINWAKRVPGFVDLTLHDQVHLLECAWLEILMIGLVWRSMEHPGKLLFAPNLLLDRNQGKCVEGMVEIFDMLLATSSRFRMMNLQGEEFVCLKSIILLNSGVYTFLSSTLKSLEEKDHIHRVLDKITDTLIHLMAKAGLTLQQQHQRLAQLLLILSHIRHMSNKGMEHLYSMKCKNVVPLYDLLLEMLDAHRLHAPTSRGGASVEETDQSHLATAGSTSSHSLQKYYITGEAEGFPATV

Mu-type opioid receptor = Mu-type opioid receptor (Homo sapiens, UniProt P35372); assay: biochemical; type: functional
[2] = molecular target: T3, Alpha-1A adrenergic receptor (Homo sapiens, UniProt P35348); type: functional, cell-based
T3 sequence (P35348 whole entry): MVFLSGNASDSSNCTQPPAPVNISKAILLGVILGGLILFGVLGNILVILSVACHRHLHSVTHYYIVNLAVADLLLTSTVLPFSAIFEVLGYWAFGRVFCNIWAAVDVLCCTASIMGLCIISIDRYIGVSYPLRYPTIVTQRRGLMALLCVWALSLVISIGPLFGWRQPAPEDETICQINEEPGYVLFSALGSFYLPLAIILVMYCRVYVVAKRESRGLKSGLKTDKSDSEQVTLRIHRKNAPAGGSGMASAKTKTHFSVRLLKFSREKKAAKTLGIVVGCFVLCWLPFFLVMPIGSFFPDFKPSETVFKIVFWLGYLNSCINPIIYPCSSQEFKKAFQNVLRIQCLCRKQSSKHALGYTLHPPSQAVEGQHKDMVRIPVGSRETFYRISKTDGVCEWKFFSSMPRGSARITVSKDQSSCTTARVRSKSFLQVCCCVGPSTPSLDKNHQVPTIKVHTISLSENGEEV

[3] = molecular target: cGMP-inhibited 3',5'-cyclic phosphodiesterase 3A (Homo sapiens, UniProt Q14432); type: functional
[4] = molecular target: 3',5'-cyclic-AMP phosphodiesterase 4A (Homo sapiens, UniProt P27815); type: functional
Progesterone receptor = molecular target: T4, Progesterone receptor (Homo sapiens, UniProt P06401)
T4 sequence (P06401 whole entry): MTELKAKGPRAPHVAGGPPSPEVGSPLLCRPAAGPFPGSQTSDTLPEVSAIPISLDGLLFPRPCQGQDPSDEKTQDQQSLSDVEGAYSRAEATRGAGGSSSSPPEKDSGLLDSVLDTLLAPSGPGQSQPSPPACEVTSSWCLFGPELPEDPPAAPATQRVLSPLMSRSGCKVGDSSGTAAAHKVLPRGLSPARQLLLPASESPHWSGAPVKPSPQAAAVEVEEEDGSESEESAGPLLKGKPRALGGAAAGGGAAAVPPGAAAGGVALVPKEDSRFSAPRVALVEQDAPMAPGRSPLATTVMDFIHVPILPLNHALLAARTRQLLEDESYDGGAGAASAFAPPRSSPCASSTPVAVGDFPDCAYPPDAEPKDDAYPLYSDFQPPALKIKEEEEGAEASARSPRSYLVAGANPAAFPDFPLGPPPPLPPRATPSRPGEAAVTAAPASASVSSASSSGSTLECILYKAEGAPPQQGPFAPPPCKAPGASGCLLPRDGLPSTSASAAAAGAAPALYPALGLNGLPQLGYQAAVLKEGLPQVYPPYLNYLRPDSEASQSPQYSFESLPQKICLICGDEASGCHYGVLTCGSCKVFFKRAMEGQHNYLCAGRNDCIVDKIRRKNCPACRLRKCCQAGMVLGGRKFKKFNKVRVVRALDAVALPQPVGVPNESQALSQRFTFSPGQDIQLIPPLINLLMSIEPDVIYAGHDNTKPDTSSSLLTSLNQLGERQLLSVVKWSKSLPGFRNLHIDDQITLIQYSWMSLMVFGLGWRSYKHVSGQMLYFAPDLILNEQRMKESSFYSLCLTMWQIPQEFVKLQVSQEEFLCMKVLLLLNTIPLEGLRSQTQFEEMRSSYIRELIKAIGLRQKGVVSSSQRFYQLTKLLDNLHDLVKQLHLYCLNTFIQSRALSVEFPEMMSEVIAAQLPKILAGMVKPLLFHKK

[5] = molecular target: Sodium-dependent noradrenaline transporter (Homo sapiens, UniProt P23975)
Further: assay procedure not described here.

3',5'-cyclic-AMP phosphodiesterase 4A, sequence (P27815 whole entry): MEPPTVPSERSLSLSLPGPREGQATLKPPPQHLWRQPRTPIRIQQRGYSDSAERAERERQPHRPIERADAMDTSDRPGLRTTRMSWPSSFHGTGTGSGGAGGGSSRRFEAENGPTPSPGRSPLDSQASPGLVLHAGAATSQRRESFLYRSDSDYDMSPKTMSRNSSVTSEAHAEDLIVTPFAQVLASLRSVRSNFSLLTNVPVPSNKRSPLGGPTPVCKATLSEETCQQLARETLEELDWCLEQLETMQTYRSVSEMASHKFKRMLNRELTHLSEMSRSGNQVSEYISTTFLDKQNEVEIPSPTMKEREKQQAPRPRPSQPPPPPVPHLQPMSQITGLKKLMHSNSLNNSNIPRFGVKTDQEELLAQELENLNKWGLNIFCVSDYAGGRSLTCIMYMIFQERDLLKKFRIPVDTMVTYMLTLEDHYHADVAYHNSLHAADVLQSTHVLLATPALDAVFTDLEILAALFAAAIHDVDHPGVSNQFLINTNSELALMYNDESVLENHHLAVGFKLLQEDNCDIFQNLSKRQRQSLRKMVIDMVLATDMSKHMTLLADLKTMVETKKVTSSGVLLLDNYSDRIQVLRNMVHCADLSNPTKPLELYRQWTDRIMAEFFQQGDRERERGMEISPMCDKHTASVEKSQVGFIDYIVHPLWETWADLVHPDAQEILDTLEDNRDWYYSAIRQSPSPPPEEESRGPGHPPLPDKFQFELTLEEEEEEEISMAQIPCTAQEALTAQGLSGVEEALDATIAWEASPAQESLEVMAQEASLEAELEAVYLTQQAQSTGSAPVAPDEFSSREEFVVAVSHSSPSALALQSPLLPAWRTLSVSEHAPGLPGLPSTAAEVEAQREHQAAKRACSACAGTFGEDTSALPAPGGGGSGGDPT
cGMP-inhibited 3',5'-cyclic phosphodiesterase 3A, sequence (Q14432 whole entry): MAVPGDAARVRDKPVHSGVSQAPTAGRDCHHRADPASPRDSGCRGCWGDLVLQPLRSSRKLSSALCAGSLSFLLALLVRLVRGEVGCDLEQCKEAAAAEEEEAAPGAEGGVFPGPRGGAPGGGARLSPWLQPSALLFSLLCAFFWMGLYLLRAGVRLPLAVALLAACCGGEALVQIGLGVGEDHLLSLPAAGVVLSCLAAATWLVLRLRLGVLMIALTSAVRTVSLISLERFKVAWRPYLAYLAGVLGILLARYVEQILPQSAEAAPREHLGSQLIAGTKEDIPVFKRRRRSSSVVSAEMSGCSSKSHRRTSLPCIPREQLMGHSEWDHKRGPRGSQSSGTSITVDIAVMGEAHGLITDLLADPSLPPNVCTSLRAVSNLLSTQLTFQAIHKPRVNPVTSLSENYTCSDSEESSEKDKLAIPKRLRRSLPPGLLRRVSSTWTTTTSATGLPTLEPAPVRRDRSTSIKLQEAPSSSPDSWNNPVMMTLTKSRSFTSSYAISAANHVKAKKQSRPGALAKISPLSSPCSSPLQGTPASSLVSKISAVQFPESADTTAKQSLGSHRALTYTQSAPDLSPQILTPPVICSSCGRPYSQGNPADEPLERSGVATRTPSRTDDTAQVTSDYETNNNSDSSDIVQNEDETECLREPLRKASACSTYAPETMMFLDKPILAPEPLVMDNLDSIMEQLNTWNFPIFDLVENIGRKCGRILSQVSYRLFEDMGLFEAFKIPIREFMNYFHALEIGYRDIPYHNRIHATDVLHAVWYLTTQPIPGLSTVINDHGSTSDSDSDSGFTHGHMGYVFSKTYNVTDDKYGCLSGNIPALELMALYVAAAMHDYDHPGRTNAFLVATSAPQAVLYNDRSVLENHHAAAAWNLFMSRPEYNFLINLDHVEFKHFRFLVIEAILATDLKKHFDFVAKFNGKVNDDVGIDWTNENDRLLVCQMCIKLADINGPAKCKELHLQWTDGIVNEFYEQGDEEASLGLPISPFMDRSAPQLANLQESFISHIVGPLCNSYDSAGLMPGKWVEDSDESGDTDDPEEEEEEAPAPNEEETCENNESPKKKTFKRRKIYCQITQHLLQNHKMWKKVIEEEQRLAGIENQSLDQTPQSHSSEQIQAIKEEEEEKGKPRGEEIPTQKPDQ
Sodium-dependent noradrenaline transporter, sequence (P23975 whole entry): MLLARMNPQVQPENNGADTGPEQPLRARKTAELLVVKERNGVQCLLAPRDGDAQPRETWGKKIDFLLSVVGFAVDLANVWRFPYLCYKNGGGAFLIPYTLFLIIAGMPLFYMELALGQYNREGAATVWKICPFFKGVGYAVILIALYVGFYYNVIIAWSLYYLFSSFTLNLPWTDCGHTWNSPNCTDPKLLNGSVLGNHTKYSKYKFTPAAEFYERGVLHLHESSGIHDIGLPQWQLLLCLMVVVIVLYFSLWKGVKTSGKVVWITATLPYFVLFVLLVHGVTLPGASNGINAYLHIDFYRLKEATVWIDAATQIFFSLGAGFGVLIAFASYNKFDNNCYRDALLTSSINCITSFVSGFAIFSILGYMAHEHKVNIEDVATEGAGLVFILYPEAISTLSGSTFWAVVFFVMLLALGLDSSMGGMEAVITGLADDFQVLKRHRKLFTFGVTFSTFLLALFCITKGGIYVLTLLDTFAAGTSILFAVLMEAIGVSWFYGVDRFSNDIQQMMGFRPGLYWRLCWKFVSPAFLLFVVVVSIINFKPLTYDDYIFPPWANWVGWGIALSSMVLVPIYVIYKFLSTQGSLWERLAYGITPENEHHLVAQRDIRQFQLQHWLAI
Mu-type opioid receptor, sequence (P35372 whole entry): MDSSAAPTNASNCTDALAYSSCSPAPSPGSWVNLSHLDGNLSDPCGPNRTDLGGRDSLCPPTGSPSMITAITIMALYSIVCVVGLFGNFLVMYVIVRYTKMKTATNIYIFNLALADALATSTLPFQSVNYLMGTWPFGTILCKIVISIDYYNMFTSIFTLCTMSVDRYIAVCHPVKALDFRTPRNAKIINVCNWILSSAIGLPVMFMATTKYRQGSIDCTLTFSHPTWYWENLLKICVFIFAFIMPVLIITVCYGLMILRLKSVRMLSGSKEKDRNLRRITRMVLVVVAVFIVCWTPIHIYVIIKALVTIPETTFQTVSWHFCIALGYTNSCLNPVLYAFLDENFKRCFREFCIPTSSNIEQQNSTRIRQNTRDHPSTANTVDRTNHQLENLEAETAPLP
Cannabinoid receptor 1, sequence (P21554 whole entry): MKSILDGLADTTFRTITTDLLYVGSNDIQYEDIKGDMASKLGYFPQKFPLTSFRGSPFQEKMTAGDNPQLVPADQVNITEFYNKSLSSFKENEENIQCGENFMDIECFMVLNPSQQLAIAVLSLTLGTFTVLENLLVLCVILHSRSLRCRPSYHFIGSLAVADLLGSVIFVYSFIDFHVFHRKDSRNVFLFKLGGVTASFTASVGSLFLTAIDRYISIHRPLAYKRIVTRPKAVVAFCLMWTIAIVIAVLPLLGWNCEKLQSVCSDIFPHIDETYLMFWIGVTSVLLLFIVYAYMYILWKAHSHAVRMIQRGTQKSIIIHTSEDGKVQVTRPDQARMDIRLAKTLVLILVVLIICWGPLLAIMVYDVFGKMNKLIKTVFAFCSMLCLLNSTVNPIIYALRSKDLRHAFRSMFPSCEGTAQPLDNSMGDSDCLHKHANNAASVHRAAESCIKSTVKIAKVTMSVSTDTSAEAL

| Structure (SMILES) | AC50 [1] [µM] | AC50 (Cannabinoid receptor 1) [µM] | AC50 (Estrogen receptor) [µM] | AC50 (Mu-type opioid receptor) [µM] | AC50 [2] [µM] | AC50 [3] [µM] | AC50 [4] [µM] | AC50 (Progesterone receptor) [µM] | AC50 [5] [µM] |
| --- | --- | --- | --- | --- | --- | --- | --- | --- | --- |
| CO/N=C(\C(=O)N[C@@H]1C(=O)N2C(C(=O)[O-])=C(C[N+]3(C)CCCC3)CS[C@H]12)c1csc(N)n1 | > 30 | > 30 | > 30 | > 30 | – | – | – | – | – |
| COC(=O)N[C@H](C(=O)N1CCC[C@H]1c1nc(-c2ccc(-c3ccc(-c4c[nH]c([C@@H]5CCCN5C(=O)[C@@H](NC(=O)OC)C(C)C)n4)cc3)cc2)c[nH]1)C(C)C | > 30 | > 30 | > 30 | > 30 | – | – | – | – | – |
| Nc1nc(N)c2nc(-c3ccccc3)c(N)nc2n1 | > 30 | > 30 | > 30 | > 30 | > 30 | > 30 | 20.8 | > 30 | 16.1 |
| C[C@H]1O[C@H](O[C@H]2[C@H](O)[C@@H](O)[C@@H](O[C@H]3[C@H](O)[C@@H](O)C(O)O[C@@H]3CO)O[C@@H]2CO)[C@H](O)[C@@H](O)[C@@H]1N[C@H]1C=C(CO)[C@@H](O)[C@H](O)[C@H]1O (stereo partly specified) [ACARBOSE] | > 30 | > 10 | – | > 30 | > 30 | 17.6 | 5.08 | > 30 | > 30 |
| Oc1ncnc2[nH]ncc12 [ALLOPURINOL] | > 30 | > 10 | > 30 | – | > 30 | > 30 | > 30 | > 30 | > 30 |
| CC(C)NCC(O)COc1ccc(COCCOC(C)C)cc1 (stereo unspecified) [BISOPROLOL] | > 30 | > 10 | > 30 | > 30 | – | – | – | – | – |
| CN(C)CCCN1c2ccccc2CCc2ccc(Cl)cc21 [CLOMIPRAMINE] | – | > 10 | – | – | 0.0154 | – | – | – | – |
| CN(CCOc1ccc(NS(C)(=O)=O)cc1)CCc1ccc(NS(C)(=O)=O)cc1 [DOFETILIDE] | > 30 | > 10 | > 30 | > 30 | > 30 | > 30 | > 30 | > 30 | > 30 |
| C#C[C@]1(O)CC[C@H]2[C@@H]3CCc4cc(O)ccc4[C@H]3CC[C@@]21C [ETHINYL ESTRADIOL] | > 30 | > 10 | – | – | > 10 | > 30 | 20.1 | 0.02 | – |
| CC(C)C(=O)Nc1ccc([N+](=O)[O-])c(C(F)(F)F)c1 [FLUTAMIDE] | > 30 | > 10 | > 10 | > 30 | 9.04 | > 30 | > 30 | > 30 | > 30 |
| COc1ccc2c(c1)C(=O)N(CCc1ccc(S(=O)(=O)NC(=O)NC3CCCCC3)cc1)C(=O)C2(C)C [GLIQUIDONE] | > 10 | > 30 | > 30 | > 30 | – | – | – | – | – |
| CC(C(=O)O)c1ccc(N2CC=CC2)c(Cl)c1 (stereo unspecified) [PIRPROFEN] | > 30 | > 10 | > 30 | – | > 30 | > 30 | > 30 | > 30 | > 30 |
| NC(=O)c1cnccn1 [PYRAZINAMIDE] | > 30 | > 30 | > 30 | > 30 | > 30 | > 30 | > 30 | > 30 | > 30 |
| NC[C@H]1CC[C@H](C(=O)O)CC1 [TRANEXAMIC ACID] | – | > 10 | > 10 | > 30 | – | – | – | – | – |
| O=C(CCCCCCC(=O)Nc1ccccc1)NO [VORINOSTAT] | > 30 | > 10 | > 30 | > 30 | – | – | – | – | – |
